The values that follow come from patent publication US11918618B2, “Composition for preventing or treating gastritis or peptic ulcer” (CHONG KUN DANG PHARMACEUTICAL CORP., priority 2017, dated 2024).

Data set [1] relates to stomach ulcer. In words: Inhibition of Indomethacin-induced stomach ulcer in rats (stomach ulcer index). Format: in vivo. The settings on record: rat, single oral dose 75.0 mg/kg, Indomethacin 80 mg/kg. On the procedure:
In order to confirm the inhibition rate of stomach ulcer of the Example 1 and Comparative examples 1 to 6, the test was carried out according to the following method. Test animals were randomly assigned to 10 animals of specific pathogen free (SPF) 7-week-old rat males per group so that the average body weight was maximally uniformly distributed throughout the adaptation period (7 days). […] All animals were fasted 48 hours before administration of test substances and control drug, and then each of test substances and control drug was orally administered, and Indomethacin previously prepared 30 minutes after administration was orally administered at a dose of 80 mg/kg. After anesthetizing with diethyl ether 5 hours after administration of Indomethacin, stomach was removed and the gastric mucosa was photographed with a digital camera. The area of the damaged site was analyzed using ImageJ software (NIH, Bethesda, Md.). The stomach ulcer index was measured according to the following Equation 1. Stomach ulcer index (%)=(damage area/total area)×100 [Equation 1] The stomach ulcer test by volume for the Example 1 was tested by the method as Experimental example 1, and was shown in Table 5.

For data set [2] the following is noted: reported in the literature; cited from earlier work.
Data set [3] deals with PGE2. Briefly: Improvement of PGE2 in serum (PGE2 ELISA Kit) of Indomethacin-treated rats. The settings on record: rat serum, oral dose 100.0 mg/kg. Format: in vivo. An excerpt:
Since the recovery mechanism of stomach mucous membrane blood stream and epithelial cells is maintained and the action of preserving cells of the stomach mucous membrane was shown, when PGE2 in serum is increased, the enhanced improvement of PGE2 affects treatment of gastritis or stomach ulcer. In order to confirm the effect of the Example 1 and Comparative examples 2, 5 to 6 according to the present invention for this improvement of PGE2, for the blood collected in Test example 2, serum was separated according to the protocol provided by the manufacturer of PGE2 ELISA Kit and then sampling treatment was carried out, and then it was analyzed, and the result was shown in the following Table 4.
A general note: ELISA stands for enzyme-linked immunosorbent assay.

Data set [4] concerns stomach mucus. In words: Effect of improving stomach mucosal amount (alcian blue binding) in Indomethacin-treated rats. Format: in vivo. To be noted: rat, oral dose 100.0 mg/kg, Indomethacin 80 mg/kg. On the procedure: In order to confirm the effect of improving the mucosal amount of the Example 1 and Comparative examples 1 to 6, the test was carried out according to the following method. Test animals were randomly assigned to 10 animals of specific pathogen free (SPF) 7-week-old rat males per group so that the average body weight was maximally uniformly distributed throughout the adaptation period (7 days). All animals were fasted 48 hours before administration and then test substances and control drug were orally administered, and 30 minutes after administration, Indomethacin 80 mg/kg was orally administered. […] After mixing the extract solution with diethyl ether in the same amount and shaking, it was centrifuged at 3,500 rpm for 10 minutes and for the supernatant, the absorbance was measured at 605 nm. 0.1% w/v alcian blue 8 GX solution was diluted with 0.25 M sucrose solution and standard solution was prepared and thereby a standard curve was fabricated and the measured absorbance value was converted into the amount of alcian blue combined with the stomach mucus, and the result was shown in Table 3.

Each structure is given as a SMILES string.

With `CNC(=C[N+](=O)[O-])NCCSCc1ccc(CN(C)C)o1` [Comparative example 4, Ranitidine], in data set [1], the “Inhibition rate (%), compared to the induced group” value was determined as 97.0% and the “Stomach ulcer index (%)” value stood at 0.20 ± 0.29 %.
`O=C/C=C/c1ccccc1` [cinnamic aldehyde]: the “stability at the room temperature” value in data set [2] was “low”.
In the case of `O=C(NC(Cc1cc(=O)[nH]c2ccccc12)C(=O)O)c1ccc(Cl)cc1` (stereo not shown) [Comparative example 5, Rebamipide], the PGE2 in data set [3] worked out at 1.82 ± 0.14 ng/mL. For the same compound, the “PGE2, % compared to the normal group” value in data set [3] (normal group 100, induced group 0) amounted to 77.7%. In addition, in data set [4], the Mucosal amount came to 10.6 ± 3.7 µg/L and the “Mucosal amount, % compared to the normal group” value was 94.6%.
